{
  "source": "patent US6339069B1",
  "about": "“Peptide-lipid conjugates, liposomes and lipsomal drug delivery” (Elan PharmaceuticalsTechnologies, Inc., priority 1996, dated 2002)",
  "key": {"[1]": {"conditions": "pH 7.4; cited from earlier work"}, "[2]": {"molecular_target": "T1, Human leukocyte elastase (HLE) (Homo sapiens, UniProt P08246)", "T1 construct": "purchased Calbiochem (San Diego, Calif.)", "T1 sequence (P08246 30-247 limits assumed)": "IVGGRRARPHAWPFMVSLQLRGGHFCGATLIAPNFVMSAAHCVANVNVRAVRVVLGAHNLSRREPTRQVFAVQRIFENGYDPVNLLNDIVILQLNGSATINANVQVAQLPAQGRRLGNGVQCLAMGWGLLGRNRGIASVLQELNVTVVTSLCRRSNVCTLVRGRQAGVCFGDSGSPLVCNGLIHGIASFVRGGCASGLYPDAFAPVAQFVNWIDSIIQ", "experiment": "Cleavage of MeO-suc-ala-ala-pro-val-DOPE by HLE (TLC, 31P-NMR)", "format": "biochemical", "conditions": "2 hours", "description": "To determine if the peptide-lipid MeO-suc-ala-ala-pro-val-DOPE (SEQ ID NO:42) is also a suitable substrate for elastase mediated cleavage 50 nmol of MeO-suc-ala-ala-pro-val-DOPE liposomes (SUVs) were incubated with 0, 2.5, 5, 10, or 20 ug HLE (from Calbiochem; 20 units/mg protein; 1 unit=amount of enzyme that will hydrolyze 1.0 umol of MeO-suc-ala-ala-pro-val-pNA per min at 25 degrees C., pH 8.0) overnight at 37 degrees C. in 50 ul volume of 10 mM TES/ 154 mM NaCl/ 0.1 mM EDTA, pH 7.4, containing 1.5 mM Ca and 1.5 mM Mg.\nLipid was extracted using the Bligh-Dyer technique (chloroform/methanol/water: 2/1.7/1), dried under nitrogen, placed under high vacuum for ˜3 hours. Samples were resuspended in 5 ul chloroform and spotted onto TLC plates. 20 ug of pure DOPE was also spotted for comparison purposes. TLC solvent system was chloroform/methanol/ammonium hydroxide (65/25/5). Plates were air dried, sprayed with molybdenate blue, then charred at 180 degrees C.\nMeO-suc-ala-ala-pro-val-DOPE liposomes were incubated with 0 or 5 ug HLE for 1, 2, 4 hours, or overnight and processed as above. The peptide was cleaved by HLE in as little as 1 hour at 37 degrees C.\nThe conversion of MeO-suc-AAPV-DOPE to DOPE (SEQ ID NO:42) was also quantitated by ^31P-NMR. […] A small shoulder that may indicate an incomplete peptide cleavage product was also observed near the original peptide-lipid peak. Treatment with 5 micrograms of elastase/100 nmol lipid yielded 20% DOPE. Longer incubation may have lead to further digestion, though multiple lamellae and/or the surface charge of the liposome may limit the ultimate amount digested. The maximum exposed peptide-lipid for intact liposomes would occur with unilamellar vesicles. Assuming only the outer leaflet peptide-lipid in unilamellar vesicles is available for digestion, the minimal percentage conversion of exposed MeO-suc-AAPV-DOPE (SEQ ID NO:42) to DOPE in the outer leaflet lipid of this preparation was 40% (FIG. 6, dotted line). If the average number of lamellae were greater than one, the percentage conversion was even higher. […]"}, "Human leukocyte elastase": {"molecular_target": "T2, Human leukocyte elastase (Homo sapiens, UniProt P08246)", "T2 construct": "purchased Calbiochem (San Diego, Calif.)", "T2 sequence (P08246 30-247 limits assumed)": "T1 sequence (P08246 30-247 limits assumed)", "experiment": "Elastase-mediated cleavage of N-Ac-AA-DOPE to DOPE (TLC, HPLC)", "format": "biochemical", "conditions": "overnight, 37° C.", "description": "Cleavage of N-Ac-ala-ala-DOPE to DOPE by elastase was monitored by thin layer chromatography (TLC). The chemical structure of N-Ac-ala-ala-DOPE and its postulated scheme of conversion to DOPE by enzymatic cleavage is shown in FIG. 1. 100-200 nmol of N-Ac-AA-DOPE SUVs were incubated with 1 mg enzyme in 0.1 ml overnight at 37° C. Human leukocyte elastase was purchased from Calbiochem (San Diego, Calif.). Lipid was extracted by organic phase separation (Bligh and Dyer, 1959) twice. Collected lipid was dried under N^2 stream and exposed to vacuum for 4 hours-overnight. Samples were resuspended in chloroform and spotted onto TLC plates. […]\nElastase and proteinase K mediated cleavage of N-Ac-AA-DOPE was quantitated using liposomes composed of N-Ac-AA-DOPE and DOTAP, a positively charged lipid. […] After treatment with elastase or proteinase K the reduction in the amount of N-Ac-AA-DOPE was monitored by HPLC (FIG. 4). […]\nCollected lipid was dried under a N2 stream and exposed to vacuum for 4 hours-overnight. […] The N-Ac-AA-DOPE peak was detected using a gradient of 59-55% isopropanol:4-8% water. Flow rate was 1.5 ml/min, column temperature was set at 45° C., and peaks were detected by a UV detector set at 205 nm. Lipid peaks were quantitated in comparison to standard curves generated by injecting 5-200 nmol of DOTAP or N-Ac-AA-DOPE and monitoring 205 nm signal. […]"}, "proteinase K": {"molecular_target": "proteinase K (Parengyodontium album, UniProt P06873)", "sequence (P06873 106-384, species assumed)": "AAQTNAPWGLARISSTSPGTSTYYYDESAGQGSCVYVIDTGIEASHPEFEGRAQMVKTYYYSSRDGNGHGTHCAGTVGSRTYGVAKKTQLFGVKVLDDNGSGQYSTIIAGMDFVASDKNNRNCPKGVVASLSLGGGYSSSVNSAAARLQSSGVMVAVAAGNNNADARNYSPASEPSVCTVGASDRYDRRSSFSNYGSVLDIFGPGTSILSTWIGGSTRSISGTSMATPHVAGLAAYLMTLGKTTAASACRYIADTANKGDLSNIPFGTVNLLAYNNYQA", "experiment": "Proteinase K-mediated cleavage of N-Ac-AA-DOPE (TLC, 31P-NMR, HPLC)", "format": "biochemical", "description": "Several proteases were tested to determine whether an enzyme with similar substrate specificity could be used as a model for elastase mediated cleavage of N-Ac-AA-DOPE. Proteinase K is a serine protease that, similarly to elastase, can cleave at peptide bonds C-terminal to aliphatic residues.\nSubsequently, proteinase K, which has a similar substrate specificity to elastase, was used to model the elastase effect because of the lower cost of the enzyme. Referring to FIG. 3, samples A and C contained pure N-acetyl-ala-ala-DOPE and pure DOPE, respectively; sample B consisted of multilamellar liposomes, prepared as described hereinbelow, composed of pure N-acetyl-ala-ala-DOPE (2 μmole total phospholipid), which were incubated in 200 μl of 154 mM NaCl, 10 mM TES, 0.1 mM EDTA at pH 7.4 and 37 ° C. for two hours in the presence of 1 mg of proteinase K. After the first incubation, another equal amount of proteinase K was added and the sample was incubated for another 2 hours. All three samples were dissolved into a final concentration of 5% deoxycholate, 50 mM EDTA and 10 mM HEPES at pH 8 for proton decoupled ^31P NMR.\nThe conversion of N-Ac-AA-DOPE to DOPE was also monitored by ^31P-NMR analysis. N-Ac-AA-DOPE LUVs were prepared and treated with or without proteinase K (1.5 mg protein/100 nmol lipid) overnight at 37° C. Samples were mixed with buffer (10% deoxycholate, 100 mM EDTA, 20 mM Hepes) and deuterium oxide (Cambridge Isotope Laboratories, Woburn, Mass.) (1:4:2) and transferred to 5 mm NMR tubes. Samples were monitored at room temperature in a Bruker AC300 spectrometer operating at 121.5 MHz, with […] 90° radio frequency pulse for proton decoupling and set to 2 sec interpulse delay to avoid signal saturation. Sweep width was set at 50 kHz. 1 Hz line broadening was applied to all spectra.\nElastase and proteinase K mediated cleavage of N-Ac-AA-DOPE was quantitated using liposomes composed of N-Ac-AA-DOPE and DOTAP, a positively charged lipid. DOTAP was included to provide a counterbalancing positive charge, and was used as a standard by which different samples could be normalized and compared. After treatment with elastase or proteinase K the reduction in the amount of N-Ac-AA-DOPE was monitored by HPLC (FIG. 4). Liposomes composed of DOTAP/N-Ac-AA-DOPE (1:1) were incubated with enzyme under given conditions. Lipid was extracted by the Bligh-Dyer procedure twice.\nCollected lipid was dried under a N2 stream and exposed to vacuum for 4 hours-overnight. Samples were resuspended in 100% ethanol and injected in 30 ul aliquots into Spherisorb silica columns (150×4.6 mm, […], Keystone Scientific). HPLC was performed using a hexane:isopropanol:water:TFA mobile phase. Hexane and TFA were held constant at 37% and 0.2%, respectively. The N-Ac-AA-DOPE peak was detected using a gradient of 59-55% isopropanol:4-8% water. Flow rate was 1.5 ml/min, column temperature was set at 45° C., and peaks were detected by a UV detector set at 205 nm. Lipid peaks were quantitated in comparison to standard curves generated by injecting 5-200 nmol of DOTAP or N-Ac-AA-DOPE and monitoring 205 nm signal. Percent cleavage was calculated by normalizing peaks to DOTAP, then determining the decrease in N-Ac-AA-DOPE peak size relative to starting amounts.\nTo verify that the cleavage of N-Ac-AA-DOPE was due to proteinase K enzymatic activity, liposomes were treated with heat inactivated proteinase K. Proteinase K was inactivated by heating at 95° C. for 1 hour, after which the enzyme was incapable of cleaving the chromogenic substrate N-Ac-AAA-pNA. […] In these experiments liposomes, prepared as described hereinbelow, were composed of 100% N-Acetyl-ala-ala-DOPE and were then extruded to approximately 0.2 microns diameter. Fifty micrograms of liposomal lipid was incubated alone or with one unit of HLE overnight at 37° C. […]"}, "S. griseus (“pronase”)": {"system": "S. griseus (“pronase”)", "experiment": "Cleavage of N-Ac-ala-ala-DOPE by pronase (HPLC)", "format": "biochemical", "conditions": "DOTAP/N-acetyl-ala-ala-PE 1:1 SUVs, 100 nmole, 0.5 or 1.0 mg enzyme, overnight, 37 degrees C.", "description": "(§1) To compare the effect of different proteolytic enzymes on the cleavage of N-acetyl-ala-ala-DOPE, small unilamellar liposomes composed of DOTAP and N-acetyl-ala-ala-PE (1:1 molar ratio, 100 nmole), prepared as described hereinabove, were incubated overnight at 37 degrees C. with either 0.5 mg (experiment 1) or 1.0 mg (experiment 2) of: S. caespitosus protease, S. priseus (“pronase”), peptidase, chymotrypsin, trypsin, protease type I, proteinase K, or with no enzyme added.\n(§2) Subsequently, lipid was extracted from these preparations by organic phase separation, and dried under vacuum. The dried lipid was suspended in ethanol, and the resulting lipidic solution was then injected into a normal phase silica column. Analysis was by HPLC, as described above. Lipid peaks were quantitated, and the amount of lipid cleavage was calculated as a percentage of the starting lipid."}, "[3]": {"system": "S. caespitosus protease, peptidase, chymotrypsin, trypsin, protease type I", "experiment": "Cleavage of N-Ac-ala-ala-DOPE by other proteases (HPLC)", "format": "biochemical", "conditions": "DOTAP/N-acetyl-ala-ala-PE 1:1 SUVs, 100 nmole, 0.5 or 1.0 mg enzyme, overnight, 37 degrees C.", "description": "as §1, §2"}},
  "data": [
    {"smiles": "CCCCCCCC/C=C\\CCCCCCCC(=O)OCC(CN(C)C)OC(=O)CCCCCCC/C=C\\CCCCCCCC", "note": "(centres unmarked) [DODAP, 1-N,N-dimethylamino dioleoyl propane]", "values": [
      {"measurement": "DODAP population positively charged", "setting": "[1]", "result": 20, "unit": "%"}
    ]},
    {"smiles": "CCCCCCCC/C=C\\CCCCCCCC(=O)OC[C@H](COP(=O)(O)OCCNC(=O)[C@@H](NC(=O)[C@@H]1CCCN1C(=O)[C@H](C)NC(=O)[C@H](C)NC(=O)CCC(=O)OC)C(C)C)OC(=O)CCCCCCC/C=C\\CCCCCCCC", "note": "[MeO-suc-AAPV-DOPE, 1,2-Dioleoyl-sn-glycero-3-phosphoethanolamido-val-pro-ala-ala-sucMeO]", "values": [
      {"measurement": "DOPE yielded from MeO-suc-AAPV-DOPE (31P-NMR)", "setting": "[2]; DODAP/MeO-suc-AAPV-DOPE 1:1 vesicles, 5 micrograms of elastase/100 nmol lipid, 37° C.", "result": 20, "unit": "%"},
      {"measurement": "Available peptide-lipid cleaved", "setting": "[2]; assuming approximately 2.5 lamellae per vesicle, 5 micrograms elastase/100 nmol lipid", "result": 100, "unit": "%"},
      {"measurement": "Minimal percentage conversion of exposed MeO-suc-AAPV-DOPE to DOPE in the outer leaflet", "setting": "[2]; assuming unilamellar vesicles, 5 micrograms elastase/100 nmol lipid", "result": "≥ 40", "unit": "%"}
    ]},
    {"smiles": "CCCCCCCC/C=C\\CCCCCCCC(=O)OCC(COP(=O)(O)OCCNC(=O)[C@H](C)NC(=O)[C@H](C)NC(C)=O)OC(=O)CCCCCCC/C=C\\CCCCCCCC", "note": "(some centres unmarked) [N-Ac-AA-DOPE, N-acetyl-alanyl-alanyl-dioleoyl phosphatidylethanolamine]", "values": [
      {"measurement": "Cleavage of N-Ac-AA-DOPE by elastase (HPLC)", "setting": "Human leukocyte elastase; DOTAP/N-Ac-AA-DOPE (1:1) liposomes, 1 mg protease/100 nmol lipid", "result": "cleaved N-Ac-AA-DOPE to a similar extent"},
      {"measurement": "Cleavage of N-Ac-AA-DOPE to DOPE by elastase (TLC)", "setting": "Human leukocyte elastase; N-Ac-AA-DOPE SUVs, 1 mg enzyme in 0.1 ml", "result": "generated a product corresponding to DOPE"},
      {"measurement": "Cleavage of N-Ac-AA-DOPE by proteinase K (HPLC)", "setting": "proteinase K; DOTAP/N-Ac-AA-DOPE (1:1) liposomes, 1 mg protease/100 nmol lipid, overnight, 37° C.", "result": "cleaved N-Ac-AA-DOPE to a similar extent"},
      {"measurement": "Cleavage of N-Ac-AA-DOPE by heat inactivated proteinase K (HPLC)", "setting": "proteinase K; DOTAP/N-Ac-AA-DOPE liposomes, proteinase K inactivated 95° C., 1 hour", "result": "did not result in any cleavage"},
      {"measurement": "Cleavage of N-Ac-ala-ala-DOPE from liposomes by proteinase K (HPLC)", "setting": "proteinase K; DOTAP/N-acetyl-ala-ala-PE 1:1 SUVs, 100 nmole, 0.5 or 1.0 mg enzyme, overnight, 37 degrees C.", "result": "effected cleavage"},
      {"measurement": "Conversion of N-Ac-AA-DOPE to DOPE (31P-NMR)", "setting": "proteinase K; LUVs, proteinase K 1.5 mg protease/100 nmol lipid, overnight, 37° C.", "result": "appearance of a peak 0.3 ppm upfield from N-Ac-AA-DOPE, corresponding with pure DOPE"},
      {"measurement": "Cleavage of N-Ac-AA-DOPE by proteinase K (TLC)", "setting": "proteinase K; N-Ac-AA-DOPE liposomes, 1 mg enzyme/100 nmol lipid, overnight, 37° C.", "result": "the peptide-lipid was cleaved and DOPE was generated"},
      {"measurement": "N-acetyl-ala-ala-DOPE converted to pure DOPE (31P NMR integration)", "setting": "proteinase K; multilamellar liposomes of pure conjugate, 1 mg proteinase K 2 hours + equal amount another 2 hours, pH 7.4, 37° C.", "result": "approximately 20%"},
      {"measurement": "Cleavage of N-Ac-ala-ala-DOPE from liposomes by pronase (HPLC)", "setting": "S. griseus (“pronase”)", "result": "effected cleavage"},
      {"measurement": "Cleavage of N-Ac-ala-ala-DOPE from liposomes by other proteases (HPLC)", "setting": "[3]", "result": "did not cleave"}
    ]}
  ]
}
